These are literature values, as cited in US11492588B2, “Lactococcus lactis subsp. lactis CCFM1018 and application thereof in preparation of food and medicine for excreting plasticizer” (priority 2018, dated 2022).

The conditions of this series: human body.

For the compound `CCCCC(CC)COC(=O)c1ccccc1C(=O)OCC(CC)CCCC` (stereo not shown) [DEHP, di(2-ethylhexyl) phthalate], the “Absorption and distribution period” value is 4 to 8 h; the “Time within which most of the DEHP is completely metabolized” value was at most 24 h. Besides, for the setting “24 h after entry”, the “Share converted into five secondary metabolites and excreted in urine” value is listed as “about 67%”; the “Share directly excreted in urine” value is reported as “less than 10%”.
